According to patent US5846940A, “Corneal therapeutic agent” (Okamoto; Sinseiro, priority 1994, dated 1998):

System: corneas of colored rabbit after excimer laser abrasion
Assay: accelerating activity for corneal wound healing after excimer laser treatment (histological observation of corneal slices)
Assay type: in vivo
Details: eye drop 100 μg/ml; for epithelium regeneration in the excimer-laser irradiated portion / inflammatory changes / thickness of the regenerated epithelium / vacuolation and fibroblast growth in the tunica propria / under the epithelium: single droplet twice a day for 5 to 7 days, optical microscope
Description: The following tests were performed with respect to the accelerating activity for the corneal wound healing after excimer laser treatment.
HP 1 and HP 2 were diluted with 1.2 ml of an oxyglutathion eye-perfusion/washing solution (trade name: BSS plus, manufactured by Santen Seiyaku) to obtain a diluted solution in a final concentration of 0.1 mg/ml. 1000 μg/ml of EGF was diluted with 1 ml of the oxyglutathion eye-perfusion/washing solution to obtain a diluted solution in a final concentration of 0.1 mg/ml. FN was diluted with 10 ml of the oxyglutathion eye-perfusion/washing solution to obtain a diluted solution in a final concentration of 0.1 mg/ml.
A colored rabbit was used as a test animal. The following surgical operation was applied to the rabbit.
An excimer laser was radiated to the corneas of both eyes of the rabbit under the condition of 180 mj/10 nsec (10 Hz) per pulse. By this radiation, the surface of central corneal parenchyma was cut off by abrasion in the form of a meniscus having a diameter of 4.5 mm (9.9 diopter) and a maximum center-depth of 70 μm. The excimer laser was radiated by using Omunimed (trade name) manufactured by Summit (U.S.A.).
Each of the aforementioned samples was administered to both eyes twice a day. A single droplet (about 50 μl) was administrated once in the morning and the afternoon for 5 to 7 days.
As Comparative examples, eye drops were prepared by dissolving the aforementioned samples in the oxyglutathion eye perfusion/washing solution in accordance with Table 2 and administered to both eyes of the rabbit.
After completion of droplet administration, right and left eyes were taken out from the rabbit and fixed with a glutathion aldehyde/formalin fixing solution. After the fixation, each cornea including a laser irradiated portion and a non-irradiated portion were excised out. Then, paraffin blocks were prepared in accordance with a customary method and thin-film slices of 5 μm thick were prepared by means of a microtome. The obtained corneal slices were stained with H.E. (hematoxylin-eosin) and then subjected to special staining such as PAS or trichrome.

Row | Compound | overall corneal wound healing accelerating / corneal therapeutic effect (conclusion) (after excimer laser treatment) | epithelium regeneration in the excimer-laser irradiated portion | inflammatory changes | thickness of the regenerated epithelium | vacuolation and fibroblast growth in the tunica propria / under the epithelium
1 | CC[C@H](C)[C@H](NC(=O)[C@H](Cc1ccc(O)cc1)NC(=O)[C@@H]1CCCN1C(=O)[C@H](CCCNC(=N)N)NC(=O)[C@H](CCCNC(=N)N)NC(C)=O)C(=O)N[C@@H](CC(C)C)C(=O)O [HP2, N-acetyl-Arg-Arg-Pro-Tyr-Ile-Leu-OH] | confirmed to have an corneal wound healing accelerating effect | observed in the entire irradiated portion | not observed | nonuniform | Vacuolation and fibroblast growth were observed
2 | EGF: epithelial cell growth factor, manufactured by Bio Medical Technologies |  | observed in the entire irradiated portion | inflammatory changes were observed | nearly uniform | vacuolation and fibroblast growth were observed
3 | fibronectin [FN] |  | observed in the entire irradiated portion | inflammatory changes were observed | nonuniform | relatively significant
